Drawing on patent EP4806900A2, “RAS INHIBITORS” (Revolution Medicines, Inc., priority 2019, dated 2021), this text covers IC50 for 29 molecules.

SMILES strings stand for the structures. “And” between values parts separate entries of the source, which are not always exact repeats. Equal values may be shown once.

The first assay concerns NCI-H358 (K-Ras G12C). As to the kind of experiment: CellTiter-Glo cell viability assay, NCI-H358. The format is cell-based, human. The conditions noted are these: Homo sapiens, NCI-H358, Table 5; read-out: H358 Cell Viability assay data (K-Ras G12C, IC50). Here is the method:
Note - The following protocol describes a procedure for monitoring cell viability of K-Ras mutant cancer cell lines in response to a compound of the invention. Other RAS isoforms may be employed, though the number of cells to be seeded will vary based on cell line used.
Test compounds (132.5 nL) were directly dispensed into the assay plates containing cells. […] On day 5, assay plates and their contents were equilibrated to room temperature for approximately 30 minutes. […] Luminescence was measured using the PerkinElmer Enspire. Data were normalized by the following: (Sample signal/Avg. DMSO)*100. The data were fit using a four-parameter logistic fit.
In general terms: Cellular ATP, detected with luciferase, serves as a proxy for viable cell number.
As for `CO[C@@H](C)c1ncccc1-c1c2c3cc(ccc3n1CC(F)(F)F)-c1cc(cc(C(F)F)c1)C[C@H](NC(=O)[C@H](C(C)C)N(C)C(=O)[C@H]1CCN(C(=O)C#CC(C)(C)N3CCC3)C1)C(=O)N1CCC[C@H](N1)C(=O)OCC(C)(C)C2` (atropisomer, axis not shown) [Compound A370], the IC50 – broadly, the concentration that gives 50% inhibition – is under 0.01 µM. Take `C=CC(=O)N1CC[C@H](C(=O)N(C)[C@H](C(=O)N[C@H]2Cc3cc(O)cc(c3)-c3ccc4c(c3)c(c(-c3cnn(C)c3[C@H](C)OC)n4CC)CC(C)(C)COC(=O)[C@@H]3CCCN(N3)C2=O)C(C)C)C1` [Compound A166]: the IC50 was under 0.01 µM.

For `C=CC(=O)N1CC[C@@H](C(=O)N(C)[C@H](C(=O)N[C@H]2Cc3cccc(c3)-c3ccc4c(c3)c(c(-c3cccnc3[C@H](C)OC)n4CC)CC(C)(C)COC(=O)[C@@H]3CCCN(N3)C2=O)C(C)C)C1` (atropisomer, axis not shown) [Compound A488], the half-maximal inhibitory concentration (IC50) is under 0.01 µM. The same measure, in the same setting: for `C=CC(=O)N1CC[C@H](C(=O)N(C)[C@H](C(=O)N[C@H]2C[C@H]3CN(CCO3)c3ccc4c(c3)c(c(-c3cccnc3[C@H](C)OC)n4CC)CC(C)(C)COC(=O)[C@@H]3CCCN(N3)C2=O)C(C)C)C1` [Compound A378] the value was 0.1 to 1 µM.

Staying with this assay, now noted: Homo sapiens, NCI-H358, read-out: H358 Cell Viability assay data (K-Ras G12C, IC50, uM), Table 5.
As to `C=CC(=O)N1CC[C@H](C(=O)N(C)[C@H](C(=O)N[C@H]2Cc3cc(O)cc(c3)-c3ccc4c(c3)c(c(-c3cnccc3[C@H](C)OC)n4CC)CC(C)(C)COC(=O)[C@@H]3CCCN(N3)C2=O)C(C)C)C1` [Compound A112], the IC50 is under 0.01 µM.

Staying with this assay, now noted: Table 5; read-out: H358 Cell Viability assay data (K-Ras G12C, IC50).
`C=CC(=O)N1CC2(CCN2C(=O)N(C)[C@H](C(=O)N[C@H]2Cc3nc(n(C)n3)-c3ccc4c(c3)c(c(-c3cccnc3[C@H](C)OC)n4CC)CC(C)(C)COC(=O)[C@@H]3CCCN(N3)C2=O)C(C)C)C1` (atropisomer, axis not shown) [Compound A612]: the IC50 lay within 0.1 to 1 µM. Still for that read-out and setting: the result for `CCn1c(-c2ccccc2CN(C)C)c2c3cc(ccc31)-c1cc(O)cc(c1)C[C@H](NC(=O)[C@H](C(C)C)N(C)C(=O)c1ccc(NC(=O)/C=C/CN(C)C)cn1)C(=O)N1CCC[C@H](N1)C(=O)OCC(C)(C)C2` [Compound A46] reads over 1 µM. For the molecule `C=CC(=O)N1CCCN(C(=O)N(C)[C@H](C(=O)N[C@H]2Cc3cc(O)cc(c3)-c3ccc4c(c3)c(c(-c3ccccc3CCOC)n4CC)CC(C)(C)COC(=O)[C@@H]3CCCN(N3)C2=O)C(C)C)CC1` [Compound A13], the IC50 was in the range of 0.1 to 1 µM. Regarding `CCn1c(-c2ccccc2CN(C)C)c2c3cc(ccc31)-c1cc(O)cc(c1)C[C@H](NC(=O)[C@H](C(C)C)N(C)C(=O)c1nc(NC(=O)/C=C/CN(C)C)cs1)C(=O)N1CCC[C@H](N1)C(=O)OCC(C)(C)C2` [Compound A90], the IC50 was over 1 µM. `CCn1c(-c2cccnc2COC)c2c3cc(ccc31)-c1cc(O)cc(c1)C[C@H](NC(=O)[C@H](C(C)C)N(C)C(=O)[C@H]1CCN(C(=O)C#CCN3CCOCC3)C1)C(=O)N1CCC[C@H](N1)C(=O)OCC(C)(C)C2` [Compound A95, (2S)-N-[(8S,14S)-22-ethyl-4-hydroxy-21-[2-(methoxymethyl)pyridin-3-yl]-18,18-dimethyl-9,15-dioxo-16-oxa-10,22,28-triazapentacyclo[18.5.2.1^2,^6.1^10,^14.0^23,^27]nonacosa-1(26),2,4,6(29),20,23(27),24-heptaen-8-yl]-3-methyl-2-{N-methyl-1-[(3S)-1-[4-(morpholin-4-yl)but-2-ynoyl]pyrrolidin-3-yl]formamido}butanamide]: the IC50 lay in the range of 0.01 to 0.1 µM.

With `C=CC(=O)N1CCN(C(=O)N(C)[C@H](C(=O)N[C@H]2Cc3cc(O)cc(c3)-c3ccc4c(c3)c(c(-c3ccccc3CCOC)n4CC)CC(C)(C)COC(=O)[C@@H]3CCCN(N3)C2=O)C(C)C)CC1` [Compound A18], the half-maximal inhibitory concentration (IC50) lay in the range of 0.1 to 1 µM. The same measure, in the same setting: the result for `CCn1c(-c2cccnc2COC)c2c3cc(ccc31)-c1cc(O)cc(c1)C[C@H](NC(=O)[C@H](C(C)C)N(C)C(=O)[C@H]1CCN(C(=O)/C=C/CN(C)C)C1)C(=O)N1CCC[C@H](N1)C(=O)OCC(C)(C)C2` [Compound A54, (2S)-2-{1-[(3S)-1-[(2E)-4-(dimethylamino)but-2-enoyl]pyrrolidin-3-yl]-N-methylformamido}-N-[(8S,14S)-22-ethyl-4-hydroxy-21-[2-(methoxymethyl)pyridin-3-yl]-18,18-dimethyl-9,15-dioxo-16-oxa-10,22,28-triazapentacyclo[18.5.2.1^2,^6.1^10,^14.0^23,^27]nonacosa-1(26),2,4,6(29),20,23(27),24-heptaen-8-yl]-3-methylbutanamide] reads 0.01 to 0.1 µM. In the case of `C=CC(=O)N1CCC(C(=O)N(C)[C@H](C(=O)N[C@H]2Cc3cc(O)cc(c3)-c3ccc4c(c3)c(c(-c3ccccc3CN(C)C)n4CC)CC(C)(C)COC(=O)[C@@H]3CCCN(N3)C2=O)C(C)C)CC1` [Compound A33], the concentration for half-maximal inhibition (IC50) is 0.1 to 1 µM. Take `CCn1c(-c2cccnc2[C@H](C)OC)c2c3cc(ccc31)-c1csc(n1)C[C@H](NC(=O)[C@H](C(C)C)N(C)C(=O)N1CCCOC13CN(C(=O)C#CC(C)(C)N(C)C)C3)C(=O)N1CCC[C@H](N1)C(=O)OCC(C)(C)C2` (atropisomer, axis not shown) [Compound A666]: the IC50 was 0.01 to 0.1 µM. For the molecule `C=CC(=O)N1CC[C@H](C(=O)N(C)[C@H](C(=O)N[C@H]2Cc3cc(O)cc(c3)-c3ccc4c(c3)c(c(-c3ccccc3N3CCOCC3)n4CC)CC(C)(C)COC(=O)[C@@H]3CCCN(N3)C2=O)C(C)C)C1` [Compound A26], the half-inhibitory concentration (IC50) was 0.1 to 1 µM. For `C=CC(=O)N1CC[C@H](C(=O)N(C)[C@H](C(=O)N[C@H]2Cc3cc(O)cc(c3)-c3ccc4c(c3)c(c(-c3ccccc3CCOC)n4C(C)(C)C#N)CC(C)(C)COC(=O)[C@@H]3CCCN(N3)C2=O)C(C)C)C1` [Compound A34], the IC50 was in the range of 0.01 to 0.1 µM.

For `C=CC(=O)N1CC[C@H](C(=O)N(C)[C@H](C(=O)N[C@H]2Cc3cccc(c3)-c3ccc4c(c3)c(c(-c3ccccc3CCOC)n4CC)CC(C)(C)COC(=O)[C@@H]3CCCN(N3)C2=O)C(C)C)C1` [Compound A24], the IC50 was over 1 µM.

`C=CC(=O)N1CC[C@H](C(=O)N(C)[C@H](C(=O)N[C@H]2Cc3cc(O)cc(c3)-c3ccc4c(c3)c(c(-c3ccc(CN(C)C)cc3)n4CC)CC(C)(C)COC(=O)[C@@H]3CCCN(N3)C2=O)C(C)C)C1` [Compound A3]: the IC50 fell in the range of 0.1 to 1 µM. Still for that read-out and setting: for `C=CC(=O)N1CC[C@H](C(=O)N(C)[C@H](C(=O)N[C@H]2Cc3cc(O)cc(c3)-c3ccc4c(c3)c(c(-c3ccccc3CCOC)n4CC)CC(C)(C)COC(=O)[C@@H]3CCCN(N3)C2=O)C2CCOCC2)C1` [Compound A6] the value was 0.1 to 1 µM; for `C=CC(=O)N1C[C@H](C)[C@H](C(=O)N(C)[C@H](C(=O)N[C@H]2Cc3cc(O)cc(c3)-c3ccc4c(c3)c(c(-c3ccccc3CN(C)C)n4CC)CC(C)(C)COC(=O)[C@@H]3CCCN(N3)C2=O)C(C)C)C1` [Compound A52], 0.01 to 0.1 µM; for `CC#CC(=O)N1CC[C@H](C(=O)N(C)[C@H](C(=O)N[C@H]2Cc3cc(O)cc(c3)-c3ccc4c(c3)c(c(-c3cccnc3[C@H](C)OC)n4CC)CC(C)(C)COC(=O)[C@@H]3CCCN(N3)C2=O)C(C)C)C1` [Compound A145, (2S)-2-{1-[(3S)-1-(but-2-ynoyl)pyrrolidin-3-yl]-N-methylformamido}-N-[(8S,14S,20M)-22-ethyl-4-hydroxy-21-{2-[(1S)-1-methoxyethyl]pyridin-3-yl}-18,18-dimethyl-9,15-dioxo-16-oxa-10,22,28-triazapentacyclo[18.5.2.1^2,^6.1^10,^14.0^23,^27]nonacosa-1(26),2,4,6(29),20,23(27),24-heptaen-8-yl]-3-methylbutanamide], < 0.01 µM and 0.01 to 0.1 µM.

On to `C=CC(=O)N1CC[C@H](C(=O)N(C)[C@H](C(=O)N[C@H]2Cc3nc(cs3)-c3ccc4c(c3)c(c(-c3cccnc3COC)n4CC)CC(C)(C)COC(=O)[C@@H]3CCCN(N3)C2=O)C(C)C)C1` [Compound A94], for which the half-inhibitory concentration (IC50) lay within 0.01 to 0.1 µM. Consider `C=CC(=O)N1CC[C@H](C(=O)N(C)[C@H](C(=O)N[C@H]2Cc3cc(O)cc(c3)-c3ccc4c(c3)c(c(-c3ccccc3CN(C)C)n4CC)CC(C)(C)COC(=O)[C@@H]3CCCN(N3)C2=O)C(C)C)C1` [Compound A5], for which the IC50 was 0.01 to 0.1 µM.

Take `CCn1c(-c2ccccc2CN(C)C)c2c3cc(ccc31)-c1cc(O)cc(c1)C[C@H](NC(=O)[C@H](C(C)C)N(C)C(=O)[C@H]1CCN(C(=O)/C=C/CN(C)C)C1)C(=O)N1CCC[C@H](N1)C(=O)OCC(C)(C)C2` [Compound A47]: the IC50 fell in the range of 0.01 to 0.1 µM. As for `C=CC(=O)N1CC[C@H](C(=O)N(C)[C@H](C(=O)N[C@H]2Cc3cc(N)cc(c3)-c3ccc4c(c3)c(c(-c3ccccc3COC)n4CC)CC(C)(C)COC(=O)[C@@H]3CCCN(N3)C2=O)C(C)C)C1` [Compound A42], the IC50 lay in the range of 0.1 to 1 µM. Take `C=CC(=O)N1CC[C@H](C(=O)N(C)[C@H](C(=O)N[C@H]2Cc3cc(O)cc(c3)-c3ccc4c(c3)c(c(-c3cncc(COC)c3)n4CC)CC(C)(C)COC(=O)[C@@H]3CCCN(N3)C2=O)C(C)C)C1` [Compound A83]: the IC50 was 0.01 to 0.1 µM.

As to `CCn1c(-c2cccnc2COC)c2c3cc(ccc31)-c1cc(O)cc(c1)C[C@H](NC(=O)[C@H](C(C)C)N(C)C(=O)[C@H]1CCN(C(=O)/C=C/CN3CCN(C)CC3)C1)C(=O)N1CCC[C@H](N1)C(=O)OCC(C)(C)C2` [Compound A72], the 50% inhibitory concentration (IC50) is over 1 µM.

For `C=CC(=O)N1CC[C@H](C(=O)N(C)[C@H](C(=O)N[C@H]2Cc3cc(O)cc(c3)-c3ccc4c(c3)c(c([C@@H]3CC=CN=C3COC)n4CC)CC(C)(C)COC(=O)[C@@H]3CCCN(N3)C2=O)C(C)C)C1` [Compound A65], the IC50 lay in the range of 0.1 to 1 µM.

Staying with this assay, now noted: read-out: H358 Cell Viability assay data (K-Ras G12C, IC50); Table 5.
`C=CC(=O)N1CC[C@H](C(=O)N(C)[C@H](C(=O)N[C@H]2Cc3nc(cs3)-c3ccc4c(c3)c(c(-c3cc(C5=CCN(C)CC5)cnc3[C@H](C)OC)n4CC)CC(C)(C)COC(=O)[C@@H]3CCCN(N3)C2=O)C(C)C)C1` (atropisomer, axis not shown) [Compound A520]: the IC50 was under 0.01 µM.
